The text below walks through data of article PMC5374619, “The synthetic peptide CIGB-300 modulates CK2-dependent signaling pathways affecting the survival and chemoresistance of non-small cell lung cancer cell lines” (Cancer Cell International, 2017).

Data set [1] has as its system NF-κB-RE-luc in H125 cells. In words: NF-κB-dependent reporter gene expression. Type of data set: cell-based, human. To be noted: H125, PMA 16 nM 6 h, CIGB-300 IC25 during first hour, dual luciferase. Here is the method:
H125 cells were transiently co-transfected with NF-κB-RE-luc Luciferase Reporter Vector pGL4.32 and the Renilla Luciferase Control Reporter Vector pRL-TK (Promega, Madison, WI) in a 10:1 ratio, using Fugene (Promega) following manufacturer’s instructions. Briefly, 1 × 10^5 cells/well were seeded onto 24-well plates and transfected the next day. Six hours after adding transfection reagents, cells were washed and complete media was added. After an overnight recovery, cells were treated for 6 h with PMA (16 nM), in presence or not of CIGB-300 (IC25) during the first hour. Finally cells were lysed and the luciferase activities were determined using the Dual-Luciferase Reporter Assay System (Promega) and normalized to the constitutive Renilla luciferase activity.
On the technique in general: Reporter assays use an easily measured gene product as a stand-in for the process of interest.

Data set [2] has as its system H125 cells. Kind of data set: Cell viability, MTS assay, monolayer. The class given is cell-based, human. Here is the method:
(§1) We used two human non-small cell lung cancer (NSCLC) derived cell lines: the adenosquamous cell carcinoma NCI-H125 (CRL-5801) and the adenocarcinoma NIH-A549 (CCL-185). The murine L Wnt-3A cell line (CRL-2647) was used in order to produce conditioned media (CM) containing the wnt3a factor, following ATCC’s instructions. All cell lines were obtained from ATCC. H125 was grown in RPMI medium supplemented with 10% FBS and 80 µg/ml gentamycin. A549 and L cells were grown in DMEM media, with the above mentioned supplementation. All cell lines were cultured at 37 °C in a humidified air atmosphere with 5% CO2.
(§2) To assess the effect of CIGB-300 or cisplatin on cell viability, 1 × 10^4 cells/well were seeded into 96 well plates in standard culture conditions. Twenty-four hours later cells were treated with different doses of CIGB-300 (25–400 μM) or cisplatin (0.3–30 μM) during 72 h. Cell proliferation was evaluated after 72 h using the MTS assay (Celltiter 96TM Non Radioactive Proliferation Assay, Promega), as described by the manufacturer. Data were analyzed using the R package “ic50” [33] in order to determine the IC50 values for each drug. Alternatively, proliferative potential was determined by assessing cell number. Briefly, cells were seeded onto 35 mm Petri dishes, treated and after 72 h wells were washed twice with PBS, trypsinized, centrifuged, resuspended in a proper volume and finally counted using an hemocytometer and trypan blue exclusion. For apoptosis determination, A549 and A549-cispR cells growing on glass coverslips were treated with 300 μM of CIGB-300 for 18 h and then stained with Acridine orange (10 μg/ml) and Ethidium bromide (10 μg/ml). Visualization was performed with a Nikon, Eclipse E400 epifluorescence microscope. Uniform green nuclei with organized structure were considered as live cells. Bright green or orange to red nuclei were classified as early or late apoptotic cells respectively. Uniformly orange to red nuclei with organized structure were ascribed as necrotic cells. The percentage of dead cells was determined for each cell line.
(Formazan colour is commonly taken as a measure of viable cells.)

For data set [3], the system named is A549 cells. In words: Cell viability, MTS assay, monolayer. The class given is cell-based, human. To be noted: dose selected from the viability results. The protocol: as §1, §2
In data set [4] the test system is A549 and A549-cispR cells. Kind of data set: Apoptosis, acridine orange/ethidium bromide double staining. To be noted: 300 μM CIGB-300, 18 h. The class given is cell-based, human. Here is the method:
To assess the effect of CIGB-300 or cisplatin on cell viability, 1 × 10^4 cells/well were seeded into 96 well plates in standard culture conditions. Twenty-four hours later cells were treated with different doses of CIGB-300 (25–400 μM) or cisplatin (0.3–30 μM) during 72 h. Cell proliferation was evaluated after 72 h using the MTS assay (Celltiter 96TM Non Radioactive Proliferation Assay, Promega), as described by the manufacturer. Data were analyzed using the R package “ic50” [33] in order to determine the IC50 values for each drug. Alternatively, proliferative potential was determined by assessing cell number. Briefly, cells were seeded onto 35 mm Petri dishes, treated and after 72 h wells were washed twice with PBS, trypsinized, centrifuged, resuspended in a proper volume and finally counted using an hemocytometer and trypan blue exclusion. For apoptosis determination, A549 and A549-cispR cells growing on glass coverslips were treated with 300 μM of CIGB-300 for 18 h and then stained with Acridine orange (10 μg/ml) and Ethidium bromide (10 μg/ml). Visualization was performed with a Nikon, Eclipse E400 epifluorescence microscope. Uniform green nuclei with organized structure were considered as live cells. Bright green or orange to red nuclei were classified as early or late apoptotic cells respectively. […] The percentage of dead cells was determined for each cell line.

For data set [5] the following is noted: up to 40 mg/kg/day intravenously; cited from earlier work.
Data set [6] has as its target T1, α7/C8 (PSMA3) in H125 cells (Homo sapiens, UniProt P25788).
T1 construct: endogenous in cells; host or cells: H125 (NCI-H125) human NSCLC cells
In words: Confocal immunofluorescence, co-occurrence with α7/C8. Type of data set: cell-based. To be noted: H125, biotin-conjugated CIGB-300 30 min, cells with cytoplasmic signal, Manders coefficient. Here is the method:
H125 cells growing on glass coverslips were treated with biotin-conjugated CIGB-300 for 30 min, washed twice with PBS, fixed in ice cold paraformaldehyde, permeabilized and blocked with PBS containing 5% bovine serum albumin for 1 h at RT. α7/C8 protein was detected by incubation with a specific primary antibody diluted in PBS containing 5% BSA, followed by an incubation with a secondary antibody coupled to Alexa 647 and with Streptavidin-FITC conjugated for 1 h at RT. Nuclei were stained with DAPI. Images were obtained in a LSM 510 Meta confocal Zeiss microscope. Confocal images were processed for presentation with ImageJ. Background of each channel was subtracted. Pearson’s and Mander’s coefficients were calculated using the JACoP plugin [38]. Single cell analysis for 15–20 representative cells was performed on three independent experiments.

In data set [7] the test system is β-CATENIN in H125 cells. Kind of data set: Western blot of cytoplasmic β-CATENIN. Type of data set: cell-based, human. The protocol: (§3) For Wnt/β-CATENIN pathway studies, H125 sub-confluent monolayers were first incubated during 24 h with 50% of CM containing the wnt3a factor and then treated for another 6 h with a low-lethal dose of CIGB-300 (IC25) or during 2 h with the CK2 competitive inhibitor TBB (25 μM) as a control. […] For the analysis of NF-κB downstream targets, H125, A549 or A549-Rcisp cells were incubated for 2 h with CIGB-300 (IC50). In the case of Bortezomib, cells were previously pretreated with 8 nM of this drug during 4 h.
(§4) In order to determine β-CATENIN expression levels, cytoplasmic proteins were extracted using saponin buffer. Briefly, monolayer cultures were incubated for 20 min with ice-cold 0.1% saponin lysis buffer (25 mM Hepes, 75 mM potassium acetate and 0.1% saponin plus phosphatase and protease inhibitors). The extraction procedure was carried out twice and the extracts were pooled prior to their centrifugation. For NF-κB detection, nuclear and cytoplasmic proteins were separated by differential centrifugation following Abcam protocol. Briefly, semiconfluent monolayers were washed twice with ice-cold PBS and then collected in 250 μl of Fractionation Buffer (HEPES 20 mM, KCl 10 mM, MgCl2 2 mM, EDTA 1 mM and 2-Mercaptoethanol […]) with protease and phosphatase inhibitors by scrapping with a Teflon scrapper. […]
(A western blot detects proteins with antibodies after separation by electrophoresis.)

Data set [8] concerns proteasome in H125 cells. In words: Proteasome-Glo Chymotrypsin-Like Cell-Based Assay. More on the design: species or system human. Particulars: H125, CIGB-300 30 min, luminescence. The protocol: Proteasome activity was assessed in H125 cells using the Proteasome-Glo Chymotrypsin-Like Cell-Based Assay (Promega) following manufacturer’s instructions. Briefly, H125 cells were plated onto 96-well plates and 24 h later treated with CIGB-300 (30 min) or with Bortezomib (4 h). Briefly: 100 µl of Proteasome-Glo™ Cell-Based Reagent were added to each 100 µl of sample and incubated at RT for 10 min. Luminescence emission was measured with a Multimode Microplate Reader, Synergy luminometer (Biotek).

The conditions of data set [9]: 24 h post intravenous injection; cited from earlier work.
In data set [10] the test system is NF-κB p65/relA in H125 cells. Kind of data set: Western blot of nuclear p65/RelA. To be noted: H125, low-lethal dose (IC25), Western blot of nuclear extracts, with or without PMA. Type of data set: cell-based, human. The protocol:
as §3, §4

Data set [11] deals with H125 spheroids. Kind of data set: 3D growth inhibition assay, multicellular tumor spheroids. The class given is cell-based, human. Particulars: IC25 and IC50 doses of monolayers, after 5 days of treatment, medium replaced every 48 h.
Data set [12] relates to A549 and A549-cispR cells. Kind of data set: Viability by cell number after cisplatin. To be noted: cell number 72 h after cisplatin, untreated set as 100%. The class given is cell-based, human.
Source text: Parental A549 cells were maintained in culture during the same period.

Molecules are shown by their SMILES. Positions of bridges follow the written chain, without caps; N, C: chain ends. Non-standard residues stand in square brackets, D forms with d. Residues, ends and D or L forms follow the SMILES beside them. βAla = NCCC(=O)O

For `CSCC[C@@H]1NC(=O)[C@H](Cc2c[nH]c3ccccc23)NC(=O)[C@@H](NC(=O)CCNC(=O)[C@H](CCC(N)=O)NC(=O)[C@@H]2CCCN2C(=O)[C@@H]2CCCN2C(=O)[C@H](CCCNC(=N)N)NC(=O)[C@H](CCCNC(=N)N)NC(=O)[C@H](CCCNC(=N)N)NC(=O)[C@H](CCC(N)=O)NC(=O)[C@H](CCCNC(=N)N)NC(=O)[C@H](CCCNC(=N)N)NC(=O)[C@H](CCCCN)NC(=O)[C@H](CCCCN)NC(=O)[C@H](CCCNC(=N)N)NC(=O)CN)CSSC[C@@H](C(=O)O)NC(=O)[C@H]([C@@H](C)O)NC(=O)CNC(=O)[C@H](CC(C)C)NC(=O)[C@H](Cc2c[nH]cn2)NC(=O)[C@H](CCCNC(=N)N)NC(=O)[C@@H]2CCCN2C(=O)[C@H](CO)NC1=O` [CIGB-300] (H-GRKKRRQRRRPPQ[βAla]CWMSPRHLGTC-OH; disulfide 15-25; N-terminus and C-terminus assumed), the NF-κB transcriptional response entry in data set [1] was “decreased NF-κB transcriptional response”. Also, the “IC25 (low-lethal dose)” value worked out at 60 µM in [2] (dose selected from the viability results) and 150 µM in data set [3]. Besides, the “number of dead cells on A549-cispR vs A549” value in data set [4] is given as “significantly increased”. Besides, the “tolerability of high doses” value in data set [5] is “safe, well tolerated and non-toxic”. Further, the “α7/C8 coincident with CIGB-300 presence” value in [6] is recorded as “More than 80%”. In addition, in data set [7] (H125, 24 h 50% CM with wnt3a, then CIGB-300 IC25 6 h or TBB 25 μM 2 h), the “β-CATENIN cytoplasmic accumulation with active Wnt pathway” value is “partially reverted”. Besides, the “basal levels of cytoplasmic β-CATENIN” value in [7] (H125, low-lethal dose CIGB-300 6 h, no wnt3a) was “not reduced”. Moreover, the proteasomal activity entry in [8] was “increased proteasomal activity”. Further, the “peptide uptake at tumor site” value in [9] is reported as “up to 1.5%”. The “nuclear levels of p65/relA” value in data set [10] was “reduced the nuclear levels”. In data set [11], the “volume of treated spheroids compared with untreated controls” value is listed as “significantly lower”.
With `N.N.[Cl][Pt][Cl]` [cisplatin, cisdiammine-dichloro-platinum, reference compound], the IC50 (commonly the point on the concentration scale where inhibition reaches its midpoint) in data set [2] (MTS assay, 72 h treatment, R package ic50, three independent experiments) was determined as 1 µM. In addition, the “viability of A549-cispR relative to parental A549 after cisplatin treatment” value in data set [12] was “twofold higher”.
